Where a SMILES comes first, the peptide text is derived from it. Where no end group is shown, it is not given here. [ ]: non-standard residue; d: D form. The star is where a group is joined. Dip = N[C@H](C(=O)O)C(c1ccccc1)c1ccccc1; X1 = C=CCC(N*)B1OC2CC3CC(C3(C)C)C2(C)O1; Cha = N[C@@H](CC1CCCCC1)C(=O)O; AlgCF2CF3 = not defined here; Abu = CC[C@H](N)C(=O)O
Key:
HCV protease [1] = biological target: HCV protease (Hepatitis C virus genotype 1b, UniProt P26663); conditions: corresponding peptides as substrates; 50 mM Hepes pH 7.5, 1% CHAPS, 15% glycerol, NS4a cofactor peptide 80 μM; read-out: Ki; cited from earlier work
[2] = biological target: T1, HCV NS3 protease, genotype 1a (Hepatitis C virus genotype 1a, UniProt P26664); type: biochemical; conditions: substrate B
T1 construct: NS3 protease catalytic domain (amino acids 1 to 192); MGAQH expression leader (5 aa), or alternatively the 15 aa His tag […]; made in house; host or cells: E. coli BL21 (DE3)
Description: (§1) Endpoint HPLC based HCV protease assay: HCV protease (5 nM) was incubated in 50 mM Tris pH 7.5, 0.1% maltoside, 5 mM DTT and appropriate amounts of glycerol, NS4A peptide, and substrate. Routine assays were 100 μl in volume containing 15% or 50% glycerol, 5.0 μM NS4A peptide and 5.0 μM substrate. Reactions were run at room temperature (˜22° C.) and quenched by the addition of 4 μl of 10% TFA before 10% of the substrate was consumed. Incubation times were 20 minutes for the ester substrate (Peptide Substrate A) and 80 minutes for the P6-P7′ amide substrate (Peptide Substrate B). […] Incubation times were 90 min. Samples, 50 μl, were injected onto an Hewlett Packard 1090 Liquid Chromatograph containing a Dynamax-60A C18 column. The column was eluted with a linear gradient from 10% acetonitrile to 45% acetonitrile in water. All solvents contained 0.1% TFA. A flow rate of 1 ml/min was used. […] The product peaks were detected by fluorescence excitation at 350 nm and emission at 500 nm.
(§2) Footnote a for Table 1 references the assay condiditions: 1) Substrate A=P6-P3′, HCV protease (4.0 nM) was incubated with various concentrations of truncated analogs of Q9692 in 50 mM Tris buffer, pH 7.0, 15% glycerol, 0.1% maltoside, 5 mM DTT and 10 μM NS4A peptide in a 96-well microtiter plate at room temperature. After 15 minutes catalysis was initiated by the addition of Ac-D-E-D(EDANS)-E-E-Abuψ[COO]-A-S-K(DABCYL)—NH2 (final concentration 5.0 μM in a total reaction volume of 200 μl). Enzymatic activity was monitored by measuring the increase in fluorescence with time on a Perkin Elmer LS50B luminescence spectrometer (excitation 350 nm, emission 500 nm, both slits 10 nm). […] Assays were 100 μl in volume, reactions were run at room temperature (˜22 C) for 80 minutes (<10% of the substrate was consumed). The addition of 4 μl of 10% TFA quenched the reactions. Quantitation of hydrolysis products was determined by measuring fluorescent peak areas following HPLC. Products were detected by excitation at 350 nm and measuring emission at 500 nm. Aliquots (50 μl) of quenched enzymatic reactions were injected on an Hewlett Packard 1090 HPLC equipped with a ¼ inch Dynamex 60A C18 column. A linear gradient from 10% acetonitrile:H2O to 45% acetonitrile:H2O was run over a period of 15 min at a flow rate of 1.0 ml/min. All solvents contained 0.1% TFA.
Comparison of the effects of Q9692 on the hydrolysis of a P6-P3′ ester substrate (FIG. 2A) and a P6-P7′ substrate (FIG. 2B) and P6-P3′ amide substrate (FIG. 2C) were determined. For substrates A and B1 Concentrations of Q9692 are 0 (circles), 1 μM (squares), 2 μM (diamonds) and 4 μM (triangles). Assay conditions: HCV protease (5 nM) was incubated in 50 mM Tris buffer at pH 7.0, 15% glycerol, 0.1% maltoside, 5 mM DTT, 10 μM NS4A peptide, and specified concentration of substrate. Assays were 100 μl in volume and reactions were run at room temperature (22 C) and quenched by the addition of 4 μl of 10% TFA before 10% of the substrate was consumed. Incubation times were 20 minutes for the ester substrate and 80 minutes for the amide substrate. Hydrolysis products were quantitated by measuring fluorescent peak areas following HPLC and detection by excitation at 350 nm and measuring emission at 500 nm. Aliquots (50 μl) of quenched enzymatic reactions were injected on an Hewlett Packard 1090 HPLC equipped with a ¼ inch Dynamex 60A C18 column.

[3] = biological target: T1, HCV NS3 protease, genotype 1a; assay: biochemical; type: biochemical; conditions: for (S = P6-P3′) Inhibition(+) / Activation (−): substrate A
Description: as §1
Continuous fluorescence-based HCV protease assay: This asay was a modified version of method of Taliani (Taliani, M.; et al. Anal. Biochem. 240, 60-67, 1996) using Substrate A (Ac-D-E-D(EDANS)-E-E-Abuψ[COO]-A-S-K(DABCYL)—NH2). Assays were run in a 96-well microtiter plates using a Perkin Elmer Luminescence Spectrometer LS50B exciting at 350 nm (10 nm slit) and emitting at 500 nm (10 nm slit). In a typical assay the protease (1-4 nM) was incubated with 10 μM NS4a peptide in 50 mM Tris pH 7.0, 5.0 mM DTT, 50% glycerol, and […] for 15 min. Catalysis was initiated by the addition of Substrate A (final concentration 5.0 μM). Assays were also run under conditions where 15% glycerol, 0.1% Maltoside were substituted for 50% glycerol and 5% CHAPS. Enzymatic activity was monitored by measuring the increase in fluorescence with time using excitation wavelength of 350 nm and an emission wavelength of 500 nm. Both slit widths were 10 nm. Inhibition constants were determined from a nonlinear least squares fit of the data to the equation Vi/Vo=1/(1+[I]/Kiapp). Where Vi is the velocity measured in the presence of inhibitor (inhibitors were introduced with the NS4a peptide) and Vo is the velocity of controls. The thermodynamic Ki was determined from Kiapparent via the relationship for competitive kinetics: Ki=Kiapp/(1+[S]/Km) where [S] is the substrate concentration.
as §2

HCV protease [4] = conditions: cited from earlier work
HCV protease (NS3) = biological target: T2, HCV protease (NS3) (Hepatitis C virus genotype 1a, UniProt P26664); type: binding; conditions: added to NS3 alone; excitation 280 nm
T2 construct: NS3 protease catalytic domain (amino acids 1 to 192); MGAQH expression leader (5 aa), or alternatively the 15 aa His tag MRGSHHHHHHMGAQH; made in house; host or cells: E. coli BL21 (DE3)
Description: Intrinsic fluorescence studies: Assays were conducted in 0.5 ml fluorescent cuvettes (0.4 ml total volume). […] Fluorescence spectra were obtained by exiting at 280 nm (10 nm slit) and scanning the emission profile from 300 to 400 nm (10 nm slit) at 1 nm s^−1.
Fluorescence spectrum of HCV protease (0.45 μM) in 50 mM Tris buffer, pH 7.0, containing 15% glycerol, and 0.10% maltoside were measured over a range of 300-400 nm using an excitation wavelength of 280 nm. Both excitation and emission slit widths were 10 nm and the scan rate was 1.0 nm sec^−1.

| Molecule | (S = P6-P7′) Inhibition (+) / Activation (−) [2] | Kd [3] [µM] | (S = P6-P3′) Inhibition(+) / Activation (−) [3] | further results |
| --- | --- | --- | --- | --- |
| Ac-EDVW[Abu]C-OH |  |  |  | Ki (HCV protease [1]): 1.4 µM |
| CC(=O)N[C@@H](CCC(=O)O)C(=O)N[C@H](C(=O)N[C@@H](CCC(=O)O)C(=O)N[C@@H](CC1CCCCC1)C(=O)N[C@@H](CS)C(=O)O)C(c1ccccc1)c1ccccc1 [Q297, Ac-Glu-Dpa-Glu-Cha-Cys-OH] (Ac-E[Dip]E[Cha]C-OH) | + | 40 | − |  |
| Ac-Asp-(D)Glu-Chg-Val-X-Nva—OH |  |  |  | Ki (HCV protease [4]): 0.028 µM |
| Asp-Glu-Val-Val-Pro-AlgCF2CF3 (DEVVP-AlgCF2CF3; reading uncertain; also: printed as Asp-Glu-Val-Val-Pro-AlgCF2CF3) [Q9714] |  |  |  | Dixon plots of 1/V versus Q9717 concentration ([3]; 5 μM substrate spanning P6-P3′): parallel lines |
| CC(=O)N[C@H](C(=O)N[C@@H](CCC(=O)O)C(=O)N[C@@H](CC1CCCCC1)C(=O)N[C@@H](CS)C(=O)O)C(c1ccccc1)c1ccccc1 [Q296, Ac-Dpa-Glu-Cha-Cys-OH] (Ac-[Dip]E[Cha]C-OH) | − | 1.5 | − |  |
| CC(=O)N[C@@H](CC(=O)O)C(=O)N[C@@H](CCC(=O)O)C(=O)N[C@H](C(N)=O)C(c1ccccc1)c1ccccc1 [Q230, Ac-Asp-Glu-Dpa-NH2] (Ac-Asp-Glu-[Dip]-NH2) | + | 400 | + |  |
| CC(=O)N[C@@H](CCC(=O)O)C(=O)N[C@H](C(=O)N[C@@H](CCC(=O)O)C(=O)N[C@@H](CC1CCCCC1)C(N)=O)C(c1ccccc1)c1ccccc1 [Q240, Ac-Glu-Dpa-Glu-Cha-NH2] (Ac-E[Dip]E[Cha]-NH2) | − | 80 | − |  |
| CC(=O)N[C@H](C(=O)N[C@@H](CCC(=O)O)C(=O)N[C@@H](CC1CCCCC1)C(N)=O)C(c1ccccc1)c1ccccc1 [Q236, Ac-Dpa-Glu-Cha-NH2] (Ac-[Dip]-Glu-[Cha]-NH2) | − | 66 | − |  |
| C=CCC(NC(=O)[C@H](CC1CCCCC1)NC(=O)[C@H](CCC(=O)O)NC(=O)[C@@H](NC(=O)[C@H](CCC(=O)O)NC(=O)[C@H](CC(=O)O)NC(C)=O)C(c1ccccc1)c1ccccc1)B1OC2CC3CC(C3(C)C)C2(C)O1 (stereo partly drawn) [Q9716, Ac-Asp-Glu-Dpa-Glu-Cha-boroAlg—C10H16] (Ac-DE[Dip]E[Cha]-X1) |  |  |  | Ki [3]: ~0.005 µM |
| KKGSVVIVGRIVLSGKPAIIPKK [NS4a] |  |  |  | increase in intrinsic fluorescence of the protease (NS3) (HCV protease (NS3)): 25% |
| CC(=O)N[C@@H](CC(=O)O)C(=O)N[C@@H](CCC(=O)O)C(=O)N[C@H](C(=O)N[C@@H](CCC(=O)O)C(N)=O)C(c1ccccc1)c1ccccc1 [Q229, Ac-Asp-Glu-Dpa-Glu-NH2] (Ac-DE[Dip]E-NH2) | + | 240 | + |  |
| CC(=O)N[C@@H](CC(=O)O)C(=O)N[C@@H](CCC(=O)O)C(=O)N[C@H](C(=O)N[C@@H](CCC(=O)O)C(=O)N[C@@H](CC1CCCCC1)C(N)=O)C(c1ccccc1)c1ccccc1 [Q228, Ac-Asp-Glu-Dpa-Glu-Cha-NH2] (Ac-DE[Dip]E[Cha]-NH2) | + | 25 | − |  |
| DEMEEC [Ac-DEMEEC—OH] |  |  |  | Ki (HCV protease [1]): 0.6 µM |
| DCSTPC [Ac-DCSTPC—OH] |  |  |  | Ki (HCV protease [1]): 180 µM |
| CC(=O)N[C@@H](CCC(=O)O)C(=O)N[C@@H](CC1CCCCC1)C(=O)N[C@@H](CS)C(=O)O [Q295, Ac-Glu-Cha-Cys-OH] (Ac-Glu-[Cha]-Cys-OH) | + | 300 | + |  |
